Results: patent US20250263370A1 (Tay Therapeutics Limited, priority 2022, published 2025)
Values joined by “and” are separate entries in the source; they are usually repeats but may differ in a detail not shown here. Equal values may be shown once. “Also recorded” adds a separate entry of the source.

Experiments:
[1] = Pharmacokinetics and plasma concentration of Example 101 in Lewis rats after oral administration (CIA study); assay type: in vivo, Lewis rat; settings: oral, per test subject
renal fibrosis = test: Unilateral Urethral Obstruction (UUO) renal fibrosis model in rats: body weight, clinical observations, histopathology scores, serum urea, hydroxyproline; assay type: in vivo, rat; set-up: Glomerulosclerosis score / Interstitial nephritis score / Collagen fiber deposition score / Nephropathy score / Total score: scale not given here; settings: for Clinical Observation: — = no observation
From the text: Unilateral Urethral Obstruction (UUO) is a complex model of renal fibrosis (RF) disease. RF is a common outcome in progressive chronic kidney diseases, characterized by excessive formation of internal scar tissue. Surgical obstruction of urine flow can be used to trigger this disease in rodents. The UUO model allows for evaluation of potential drugs as treatment for RF.
Experimental groups for the study are outlined in Table 10. […] Briefly, animals were anesthetized using a Zoletil/Xylazine mixture (20:1, v:v) for a final dose of 25 mg/kg. The operation area was disinfected with 75% alcohol before shaving. Rats in UUO group were exposed left ureter through a small incision on the left side of the abdomen and ligated with 3-0 silk at two locations about 0.5 cm below the renal hilum. The ureters of sham rats in Group 1 were manipulated but not ligated.
Starting on Day 0, animals in group 2 were administered daily doses of the vehicle for 14 days.
Clinical signs for all animals were monitored and recorded daily. Blind clinical nephropathy scores were conducted for all animals in the study. Glomerulosclerosis, interstitial nephritis, collagen fiber deposition, nephropathy were each assessed for all experimental rats, and a total clinical score was determined for each rat. The scoring system represented the degree or percentage of lesions in the whole kidney. Clinical score assessments were performed on Day 14.
Serum for blood biochemistry analysis was collected into centrifuge tubes without coagulant four hours after final dosing. Blood plasma samples from group 3 was collected into tubes with K2EDTA four hours after final dosing. At the conclusion of the study (end of the 14-day period), animals were euthanized. Kidney tissue was collected four hours after final dosing. Ligated side kidney was divided into three copies ⅓ fix into 10% formalin for H&E analysis, ⅓ into RNA for PCR analysis of tissue biomarkers Col1a1, TGF-b1, MCP-1, IL-1b, IL-6, IL-17, TNF-a, and Timp1, and ⅓ for hydroxyproline assay analyzed by ELISA. RNA was extracted from tissue using the RNeasy mini kit (Qiagen). RNA concentration was measured using a NanoDrop One Spectrophotometer (ThermoFisher) and converted to cDNA using a High-Capacity RNA-to-cDNA kit (Invitrogen). RT-PCR was performed to measure levels of mRNA of different targets using TaqMan® Gene Expression Master Mix and TaqMan® probe/primer sets on a QuantStudio 6, Real-Time PCR System (ThermoFisher). Fold change in target gene expression was determined using the ΔΔCt method.

BD 2 = BD 2 (Homo sapiens, UniProt O60885); test: Free EC50 for BD 2, compared with plasma concentration
[2] = 30 mg/kg BID for 14 days (group 3)
[3] = Example 101 30 mg/kg, individual animals, histopathology score

CNC(=O)c1[nH]c(C(=O)NC2CCC2)cc1O[C@@H](C)c1ccccc1 (stereo in doubt) [Example 101, N^5-cyclobutyl-N^2-methyl-3-(1-phenylethoxy)-1H-pyrrole-2,5-dicarboxamide]
AUClast/D ([1]; day 0, 10 mg/kg): 713 (ng·h/mL)/(mg/kg) and 820 (ng·h/mL)/(mg/kg) and 720 (ng·h/mL)/(mg/kg) | AUC—% Extrap—obs ([1]; day 0, 10 mg/kg): 0.307% and 0.788% and 5.77% | Cmax ([1]; day 0, 10 mg/kg): 2460 ng/mL and 1610 ng/mL | MRTInf—obs ([1]; day 0, 10 mg/kg): 8.69 h and 9.50 h | Tmax ([1]; day 0, 10 mg/kg): 10.0 h | Plasma concentration ([1]; day 20, 10 mg/kg, 0.25 h): 1400 ng/mL and 1570 ng/mL | Plasma concentration ([1]; day 20, 10 mg/kg, 0.5 h): 1550 ng/mL and 1730 ng/mL | Plasma concentration ([1]; day 20, 10 mg/kg, 1 h): 1730 ng/mL and 1590 ng/mL | Plasma concentration ([1]; day 20, 10 mg/kg, 2 h): 1260 ng/mL and 1320 ng/mL | Plasma concentration ([1]; day 20, 10 mg/kg, 4 h): 513 ng/mL and 518 ng/mL | Plasma concentration ([1]; day 20, 10 mg/kg, 10 h): 1710 ng/mL and 1460 ng/mL | Plasma concentration ([1]; day 20, 10 mg/kg, 12 h): 461 ng/mL and 498 ng/mL | AUCInf ([1]; day 20, 10 mg/kg): 11782 ng·h/mL and 11743 ng·h/mL | AUClast ([1]; day 20, 10 mg/kg): 11699 ng·h/mL and 11548 ng·h/mL | AUClast/D ([1]; day 20, 10 mg/kg): 421 (ng·h/mL)/(mg/kg) and 585 (ng·h/mL)/(mg/kg) and 577 (ng·h/mL)/(mg/kg) | AUC—% Extrap—obs ([1]; day 20, 10 mg/kg): 0.982% and 0.700% and 1.65% | Cmax ([1]; day 20, 10 mg/kg): 1730 ng/mL | MRTInf—obs ([1]; day 20, 10 mg/kg): 6.80 h and 7.09 h | T1/2 ([1]; day 20, 10 mg/kg): 2.85 h and 3.54 h | Tmax ([1]; day 20, 10 mg/kg): 1.00 h and 0.500 h | overall effect in UUO / renal fibrosis (renal fibrosis; 30 mg/kg): ameliorates clinical symptoms associated with UUO; also recorded: surprisingly effective against renal fibrosis and renal fibrosis-related conditions | animals that exhibited diarrhea in addition to soft stools (renal fibrosis; [2]): One animal | animals that exhibited dirty anuses (renal fibrosis; [2]): Three animals | body weight over the 14-day study (renal fibrosis; [2]): slight weight loss over the first seven days of the study, and then gained weight over the remaining seven days | rats that exhibited soft stools during the study (renal fibrosis; [2]): Four | level of collagen fiber deposition relative to UUO + vehicle (renal fibrosis; 30 mg/kg BID, Day 14): reduced | level of interstitial nephritis relative to UUO + vehicle (renal fibrosis; 30 mg/kg BID, Day 14): reduced | level of nephropathy relative to UUO + vehicle (renal fibrosis; 30 mg/kg BID, Day 14): reduced | pathology staining of kidney (FIG. 13B) (renal fibrosis; 30 mg/kg BID, Day 14): mild interstitial nephritis with neutrophil and lymphocyte infiltration, degeneration and necrosis of renal tubular epithelial cells, and high tubular dilatation | total clinical scores relative to UUO + vehicle (renal fibrosis; 30 mg/kg BID, Day 14): reduced | serum urea levels between the three experimental groups (renal fibrosis; 30 mg/kg BID, four hours after final dosing): No significant differences | hydroxyproline levels between the three experimental groups (renal fibrosis; 30 mg/kg BID, kidney tissue): No significant differences | Body weight (renal fibrosis; 30 mg/kg, Day 0, individual animals): 324 g and 307 g and 295 g and 302 g and 285 g and 297 g and 294 g and 306 g | Body weight (renal fibrosis; 30 mg/kg, Day 1, individual animals): 293 g and 284 g (2×) and 277 g (2×) and 279 g and 276 g and 302 g | Body weight (renal fibrosis; 30 mg/kg, Day 2, individual animals): 299 g (2×) and 274 g (3×) and 275 g and 273 g and 303 g | Body weight (renal fibrosis; 30 mg/kg, Day 3, individual animals): 306 g and 266 g and 267 g and 274 g (2×) and 278 g and 304 g and 305 g | Body weight (renal fibrosis; 30 mg/kg, Day 4, individual animals): 315 g and 259 g and 262 g and 276 g and 283 g and 277 g and 309 g and 312 g | Body weight (renal fibrosis; 30 mg/kg, Day 5, individual animals): 310 g and 263 g and 254 g and 282 g and 284 g and 279 g and 302 g and 315 g | Body weight (renal fibrosis; 30 mg/kg, Day 6, individual animals): 323 g and 265 g and 258 g and 286 g and 285 g and 284 g and 304 g and 321 g | Body weight (renal fibrosis; 30 mg/kg, Day 7, individual animals): 322 g and 270 g and 258 g and 297 g and 289 g and 287 g and 307 g and 324 g | Body weight (renal fibrosis; 30 mg/kg, Day 8, individual animals): 322 g and 271 g and 260 g and 296 g | Body weight (renal fibrosis; 30 mg/kg, Day 9, individual animals): 331 g and 276 g and 264 g and 303 g | Body weight (renal fibrosis; 30 mg/kg, Day 10, individual animals): 330 g and 277 g and 261 g and 311 g | Body weight (renal fibrosis; 30 mg/kg, Day 11, individual animals): 327 g and 275 g and 265 g and 297 g | Body weight (renal fibrosis; 30 mg/kg, Day 12, individual animals): 318 g and 285 g and 260 g and 291 g | Body weight (renal fibrosis; 30 mg/kg, Day 13, individual animals): 328 g and 283 g and 276 g and 304 g | Body weight (renal fibrosis; 30 mg/kg, Day 14, individual animals): 334 g and 286 g and 271 g and 313 g | Body weight (renal fibrosis; 30 mg/kg, Day −1, individual animals): 306 g and 287 g and 299 g and 295 g and 281 g and 285 g and 296 g and 301 g | Serum Urea Mean ± SD (renal fibrosis; 30 mg/kg, group mean): 5.85 ± 0.69 mmol/L | Serum Urea (renal fibrosis; 30 mg/kg, individual animals): 4.95 mmol/L and 6.04 mmol/L and 6.62 mmol/L and 5.01 mmol/L and 5.28 mmol/L and 6.26 mmol/L and 5.90 mmol/L and 6.70 mmol/L | Collagen fiber deposition score (renal fibrosis; [3]): 2 (2×) and 1 (6×) | Glomerulosclerosis score (renal fibrosis; [3]): 0 | Interstitial nephritis score (renal fibrosis; [3]): 3 (5×) and 2 (3×) | Nephropathy score (renal fibrosis; [3]): 2 (2×) and 1 (6×) | Total score (renal fibrosis; Example 101 30 mg/kg, individual animals, sum of histopathology scores): 7 (2×) and 5 (3×) and 4 (3×) | Body weight, Mean ± SD (renal fibrosis; group 3, Day 0, group mean): 301 g | Body weight, Mean ± SD (renal fibrosis; group 3, Day 1, group mean): 284 g | Body weight, Mean ± SD (renal fibrosis; group 3, Day 2, group mean): 284 g | Body weight, Mean ± SD (renal fibrosis; group 3, Day 3, group mean): 284 g | Clinical Observation (renal fibrosis; group 3, Day 3, individual animals): diarrhea | Body weight, Mean ± SD (renal fibrosis; group 3, Day 4, group mean): 287 g | Body weight, Mean ± SD (renal fibrosis; group 3, Day 5, group mean): 286 g | Clinical Observation (renal fibrosis; group 3, Day 5, individual animals): Anal | Body weight, Mean ± SD (renal fibrosis; group 3, Day 6, group mean): 291 g | Clinical Observation (renal fibrosis; group 3, Day 6, individual animals): Anal | Body weight, Mean ± SD (renal fibrosis; group 3, Day 7, group mean): 294 g | Clinical Observation (renal fibrosis; group 3, Day 7, individual animals): Anal | Body weight, Mean ± SD (renal fibrosis; group 3, Day 8, group mean): 296 g | Clinical Observation (renal fibrosis; group 3, Day 8, individual animals): soft | Body weight, Mean ± SD (renal fibrosis; group 3, Day 9, group mean): 300 g | Clinical Observation (renal fibrosis; group 3, Day 9, individual animals): soft | Body weight, Mean ± SD (renal fibrosis; group 3, Day 10, group mean): 303 g | Clinical Observation (renal fibrosis; group 3, Day 10, individual animals): soft | Body weight, Mean ± SD (renal fibrosis; group 3, Day 11, group mean): 306 g | Body weight, Mean ± SD (renal fibrosis; group 3, Day 12, group mean): 304 g | Body weight, Mean ± SD (renal fibrosis; group 3, Day 13, group mean): 312 g | Clinical Observation (renal fibrosis; group 3, Day 13, individual animals): soft | Body weight, Mean ± SD (renal fibrosis; group 3, Day 14, group mean): 314 g | Clinical Observation (renal fibrosis; group 3, Day 14, individual animals): Anal (2×) and soft | Body weight, Mean ± SD (renal fibrosis; group 3, Day −1, group mean): 294 g | Final Hydroxyproline Con., Mean (renal fibrosis; group mean): 0.65 μg/mg tissue | Final Hydroxyproline Con. (renal fibrosis; individual animals): 0.72 μg/mg tissue (2×) and 0.69 μg/mg tissue and 0.64 μg/mg tissue and 0.60 μg/mg tissue and 0.66 μg/mg tissue and 0.58 μg/mg tissue and 0.55 μg/mg tissue | EC50 (BD 2): 606 nM
